Test results: patent publication US11565022B2, “Therapy for post-traumatic osteoarthritis” (University of Iowa Research Foundation, priority 2015, dated 2023)

System: complex I of the electron transport chain in chondrocytes
Assay: complex I activity in the presence or absence of amobarbital (FIG. 4)
Format: biochemical

Question: How did the “biochemical activity of complex I of the electron transport chain” value turn out when `CCC1(CCC(C)C)C(=O)NC(=O)NC1=O` [amobarbital] was run?
Answer: directly inhibits
